Measurements: ChEMBL document CHEMBL1136931, “Discovery of low nanomolar and subnanomolar inhibitors of the mycobacterial beta-carbonic anhydrases Rv1284 and Rv3273” (J Med Chem, 2009)

Assays:
[1] = biological target: Carbonic anhydrase 1 (Homo sapiens, UniProt P00915)
[2] = biological target: T1, Beta-carbonic anhydrase 1 (Mycobacterium tuberculosis, UniProt P9WPJ7)
T1 sequence (P9WPJ7 whole entry): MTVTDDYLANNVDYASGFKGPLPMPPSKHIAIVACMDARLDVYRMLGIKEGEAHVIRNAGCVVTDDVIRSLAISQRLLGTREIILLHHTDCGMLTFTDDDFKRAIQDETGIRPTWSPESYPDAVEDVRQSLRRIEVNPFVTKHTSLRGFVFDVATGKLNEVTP

[3] = biological target: Carbonic anhydrase 2 (Homo sapiens, UniProt P00918)

Chain of Carbonic anhydrase 1 (P00915 whole entry): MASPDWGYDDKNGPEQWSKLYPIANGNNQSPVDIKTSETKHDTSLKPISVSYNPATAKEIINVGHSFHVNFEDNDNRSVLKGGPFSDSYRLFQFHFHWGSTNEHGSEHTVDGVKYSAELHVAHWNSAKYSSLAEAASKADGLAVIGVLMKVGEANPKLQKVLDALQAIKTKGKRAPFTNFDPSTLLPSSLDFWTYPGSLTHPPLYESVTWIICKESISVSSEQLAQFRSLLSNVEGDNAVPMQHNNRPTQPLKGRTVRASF

Compound	Ki [1] [nM]	Ki [2] [nM]	Ki [3] [nM]
NS(=O)(=O)c1ccc(S(=O)(=O)Nc2cccc3c(Cl)c[nH]c23)cc1	97	–	–
NC(=O)c1[nH]c2ccc(S(N)(=O)=O)cc2c1-c1ccccc1	48	7.5	31
